Columns and labels:
Type in all cases: in vivo
Rice [1] = test: Percent inhibition in transplanted rice (Table VI)
Description: (§1) In Table VI, data is presented showing the effect of said compound on the major Asian rice weeds Echinochloa crusgalli (EC), Monochoria vaginalis (MV), Cyperus serotinus (CS), Eleocharis kuroguwai (EK) and Sagittaria trifolia (ST) in transplanted rice at rates within the range of 0.25-2.0 lb/A (0.28-2.24 kg/ha); observations were made 18 days after treatment.

Soybean = test: Pre-emergent herbicidal activity (Table III); note: ranges in brackets are in %
Summary of the method: (§2)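 Treated cover soil over seeded pans; sub-irrigated greenhouse culture; fixed-scale injury rating after ~2-3 weeks.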

Lambsquarters = test: Pre-emergent herbicidal activity (Table III); note: ranges in brackets are in %
Summary of the method: as §2

Downy Brome [2] = test: Pre-emergent herbicidal activity (Table III); note: ranges in brackets are in %
Summary of the method: as §2

Sorghum = test: Pre-emergent herbicidal activity (Table III); note: ranges in brackets are in %
Summary of the method: as §2

Crabgrass = test: Pre-emergent herbicidal activity (Table III); note: ranges in brackets are in %
Summary of the method: as §2

Sugarbeet = test: Pre-emergent herbicidal activity (Table III); note: ranges in brackets are in %
Summary of the method: as §2

Barnyardgrass [3] = test: Pre-emergent herbicidal activity (Table III); note: ranges in brackets are in %
Summary of the method: as §2

Rice [4] = test: Pre-emergent herbicidal activity (Table III); note: ranges in brackets are in %
Summary of the method: as §2

Panicum = test: Pre-emergent herbicidal activity (Table III); note: ranges in brackets are in %
Summary of the method: as §2

Smartweed [5] = test: Pre-emergent herbicidal activity (Table III); note: ranges in brackets are in %
Summary of the method: as §2

Morningglory [6] = test: Pre-emergent herbicidal activity (Table III); note: ranges in brackets are in %
Summary of the method: as §2

Wheat = test: Pre-emergent herbicidal activity (Table III); note: ranges in brackets are in %
Summary of the method: as §2

Hemp Sesbania = test: Pre-emergent herbicidal activity (Table III); note: ranges in brackets are in %
Summary of the method: as §2

Wild Buckwheat = test: Pre-emergent herbicidal activity (Table III); note: ranges in brackets are in %
Summary of the method: as §2

Cocklebur = test: Pre-emergent herbicidal activity (Table III); note: ranges in brackets are in %
Summary of the method: as §2

Velvetleaf = test: Pre-emergent herbicidal activity (Table III); note: ranges in brackets are in %
Summary of the method: as §2

Downy Brome [7] = test: Pre-emergent herbicidal activity (Table II); conditions: 2-3 weeks; note: ranges in brackets are in %
Summary of the method: (§3)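 Treated soil cover layer (known amount of active ingredient, solvent or wettable powder) applied over seeds/propagules in pans. Greenhouse bench, watered from below; injury rated at ~2-3 weeks.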

Barnyardgrass [8] = test: Pre-emergent herbicidal activity (Table II); conditions: 2-3 weeks; note: ranges in brackets are in %
Summary of the method: as §3

Smartweed [9] = test: Pre-emergent herbicidal activity (Table II); conditions: 2-3 weeks; note: ranges in brackets are in %
Summary of the method: as §3

Morningglory [10] = test: Pre-emergent herbicidal activity (Table II); conditions: 2-3 weeks; note: ranges in brackets are in %
Summary of the method: as §3

major Asian rice weeds = test: Selective control of weeds in transplanted rice (summary of Table VI)
Description: as §1

## CC1=C(N(Cn2c(=O)sc3ccccc32)C(=O)CCl)C(C)CCC1 (stereo not shown) [Example 1, N-(2,6-dimethyl-1-cyclohexen-1-yl)-N-[(2-oxo-3(2H)-benzothiazolyl)methyl]-2-chloroacetamide]
Rice [1]; Oryza sativa, 432 h, transplanted rice, 0.28 kg/ha, 18 days after treatment
  inhibition at 280 g/ha: 0%
Rice [1]; Oryza sativa, 432 h, transplanted rice, 0.56 kg/ha, 18 days after treatment
  inhibition at 560 g/ha: 0%
Rice [1]; Oryza sativa, 432 h, transplanted rice, 1.12 kg/ha, 18 days after treatment
  inhibition at 1120 g/ha: 0%
Rice [1]; Oryza sativa, 432 h, transplanted rice, 2.24 kg/ha, 18 days after treatment
  inhibition at 2240 g/ha: 10%
Rice [1]; at 2.24 kg/ha or more
  rice injury (rice safety): ≤ 15%
Soybean; 0.0056 kg/ha
  Herbicidal rating: 0 (0-24)
Soybean; 0.0112 kg/ha
  Herbicidal rating: 0 (0-24)
Soybean; 0.056 kg/ha
  Herbicidal rating: 1 (25-49)
Soybean; 0.28 kg/ha
  Herbicidal rating: 0 (0-24)
Soybean; 1.12 kg/ha
  Herbicidal rating: 0 (0-24)
Soybean; 5.6 kg/ha
  Herbicidal rating: 1 (25-49)
Lambsquarters; 0.0056 kg/ha
  Herbicidal rating: 1 (25-49)
Lambsquarters; 0.0112 kg/ha
  Herbicidal rating: 1 (25-49)
Lambsquarters; 0.056 kg/ha
  Herbicidal rating: 1 (25-49)
Lambsquarters; 0.28 kg/ha
  Herbicidal rating: 2 (50-74)
Lambsquarters; 1.12 kg/ha
  Herbicidal rating: 2 (50-74)
Lambsquarters; 5.6 kg/ha
  Herbicidal rating: 1 (25-49)
Downy Brome [2]; 0.0056 kg/ha
  Herbicidal rating: 0 (0-24)
Downy Brome [2]; 0.0112 kg/ha
  Herbicidal rating: 1 (25-49)
Downy Brome [2]; 0.056 kg/ha
  Herbicidal rating: 0 (0-24)
Downy Brome [2]; 0.28 kg/ha
  Herbicidal rating: 0 (0-24)
Downy Brome [2]; 1.12 kg/ha
  Herbicidal rating: 3 (75-100)
Downy Brome [2]; 5.6 kg/ha
  Herbicidal rating: 0 (0-24)
Sorghum; 0.0056 kg/ha
  Herbicidal rating: 0 (0-24)
Sorghum; 0.0112 kg/ha
  Herbicidal rating: 1 (25-49)
Sorghum; 0.056 kg/ha
  Herbicidal rating: 0 (0-24)
Sorghum; 0.28 kg/ha
  Herbicidal rating: 0 (0-24)
Sorghum; 1.12 kg/ha
  Herbicidal rating: 3 (75-100)
Sorghum; 5.6 kg/ha
  Herbicidal rating: 1 (25-49)
Crabgrass; 0.0056 kg/ha
  Herbicidal rating: 3 (75-100)
Crabgrass; 0.0112 kg/ha
  Herbicidal rating: 2 (50-74)
Crabgrass; 0.056 kg/ha
  Herbicidal rating: 3 (75-100)
Crabgrass; 0.28 kg/ha
  Herbicidal rating: 3 (75-100)
Crabgrass; 1.12 kg/ha
  Herbicidal rating: 3 (75-100)
Crabgrass; 5.6 kg/ha
  Herbicidal rating: 3 (75-100)
Sugarbeet; 0.0056 kg/ha
  Herbicidal rating: 0 (0-24)
Sugarbeet; 0.0112 kg/ha
  Herbicidal rating: 0 (0-24)
Sugarbeet; 0.056 kg/ha
  Herbicidal rating: 1 (25-49)
Sugarbeet; 0.28 kg/ha
  Herbicidal rating: 1 (25-49)
Sugarbeet; 1.12 kg/ha
  Herbicidal rating: 1 (25-49)
Sugarbeet; 5.6 kg/ha
  Herbicidal rating: 1 (25-49)
Barnyardgrass [3]; 0.0056 kg/ha
  Herbicidal rating: 3 (75-100)
Barnyardgrass [3]; 0.0112 kg/ha
  Herbicidal rating: 3 (75-100)
Barnyardgrass [3]; 0.056 kg/ha
  Herbicidal rating: 3 (75-100)
Barnyardgrass [3]; 0.28 kg/ha
  Herbicidal rating: 3 (75-100)
Barnyardgrass [3]; 1.12 kg/ha
  Herbicidal rating: 3 (75-100)
Barnyardgrass [3]; 5.6 kg/ha
  Herbicidal rating: 3 (75-100)
Rice [4]; 0.0056 kg/ha
  Herbicidal rating: 1 (25-49)
Rice [4]; 0.0112 kg/ha
  Herbicidal rating: 1 (25-49)
Rice [4]; 0.056 kg/ha
  Herbicidal rating: 0 (0-24)
Rice [4]; 0.28 kg/ha
  Herbicidal rating: 2 (50-74)
Rice [4]; 1.12 kg/ha
  Herbicidal rating: 2 (50-74)
Rice [4]; 5.6 kg/ha
  Herbicidal rating: 2 (50-74)
Panicum; 0.0056 kg/ha
  Herbicidal rating: 3 (75-100)
Panicum; 0.0112 kg/ha
  Herbicidal rating: 3 (75-100)
Panicum; 0.056 kg/ha
  Herbicidal rating: 3 (75-100)
Panicum; 0.28 kg/ha
  Herbicidal rating: 3 (75-100)
Panicum; 1.12 kg/ha
  Herbicidal rating: 3 (75-100)
Panicum; 5.6 kg/ha
  Herbicidal rating: 2 (50-74)
Smartweed [5]; 0.0056 kg/ha
  Herbicidal rating: 1 (25-49)
Smartweed [5]; 0.0112 kg/ha
  Herbicidal rating: 1 (25-49)
Smartweed [5]; 0.056 kg/ha
  Herbicidal rating: 1 (25-49)
Smartweed [5]; 0.28 kg/ha
  Herbicidal rating: 1 (25-49)
Smartweed [5]; 1.12 kg/ha
  Herbicidal rating: 0 (0-24)
Smartweed [5]; 5.6 kg/ha
  Herbicidal rating: 0 (0-24)
Morningglory [6]; 0.0056 kg/ha
  Herbicidal rating: 3 (75-100)
Morningglory [6]; 0.0112 kg/ha
  Herbicidal rating: 3 (75-100)
Morningglory [6]; 0.056 kg/ha
  Herbicidal rating: 1 (25-49)
Morningglory [6]; 0.28 kg/ha
  Herbicidal rating: 0 (0-24)
Morningglory [6]; 1.12 kg/ha
  Herbicidal rating: 0 (0-24)
Morningglory [6]; 5.6 kg/ha
  Herbicidal rating: 0 (0-24)
Wheat; 0.0056 kg/ha
  Herbicidal rating: 0 (0-24)
Wheat; 0.0112 kg/ha
  Herbicidal rating: 0 (0-24)
Wheat; 0.056 kg/ha
  Herbicidal rating: 0 (0-24)
Wheat; 0.28 kg/ha
  Herbicidal rating: 0 (0-24)
Wheat; 1.12 kg/ha
  Herbicidal rating: 1 (25-49)
Wheat; 5.6 kg/ha
  Herbicidal rating: 0 (0-24)
Hemp Sesbania; 0.0112 kg/ha
  Herbicidal rating: 1 (25-49)
Hemp Sesbania; 0.056 kg/ha
  Herbicidal rating: 0 (0-24)
Wild Buckwheat; 0.0056 kg/ha
  Herbicidal rating: 0 (0-24)
Wild Buckwheat; 0.0112 kg/ha
  Herbicidal rating: 0 (0-24)
Wild Buckwheat; 0.056 kg/ha
  Herbicidal rating: 0 (0-24)
Wild Buckwheat; 0.28 kg/ha
  Herbicidal rating: 0 (0-24)
Wild Buckwheat; 1.12 kg/ha
  Herbicidal rating: 0 (0-24)
Wild Buckwheat; 5.6 kg/ha
  Herbicidal rating: 0 (0-24)
Cocklebur; 0.0112 kg/ha
  Herbicidal rating: 0 (0-24)
Cocklebur; 0.056 kg/ha
  Herbicidal rating: 0 (0-24)
Velvetleaf; 0.0056 kg/ha
  Herbicidal rating: 0 (0-24)
Velvetleaf; 0.0112 kg/ha
  Herbicidal rating: 0 (0-24)
Velvetleaf; 0.056 kg/ha
  Herbicidal rating: 0 (0-24)
Velvetleaf; 0.28 kg/ha
  Herbicidal rating: 0 (0-24)
Velvetleaf; 1.12 kg/ha
  Herbicidal rating: 0 (0-24)
Velvetleaf; 5.6 kg/ha
  Herbicidal rating: 0 (0-24)
Downy Brome [7]; 5.6 kg/ha
  Herbicidal rating: 2 (50-74)
Downy Brome [7]; 11.0 kg/ha
  Herbicidal rating: 2 (50-74)
Barnyardgrass [8]; 5.6 kg/ha
  Herbicidal rating: 3 (75-100)
Barnyardgrass [8]; 11.0 kg/ha
  Herbicidal rating: 3 (75-100)
Smartweed [9]; 5.6 kg/ha
  Herbicidal rating: 1 (25-49)
Smartweed [9]; 11.0 kg/ha
  Herbicidal rating: 3 (75-100)
Morningglory [10]; 5.6 kg/ha
  Herbicidal rating: 2 (50-74)
Morningglory [10]; 11.0 kg/ha
  Herbicidal rating: 2 (50-74)
Major Asian rice weeds
  efficacy as a rice herbicide: particularly efficacious as a rice herbicide
Major Asian rice weeds; rates as low as 0.28 kg/ha
  selective weed control: selectively controlled all weeds in the test, except Sagittaria trifolia
